Values quoted from earlier work, collected in patent US11639345B2, “Methionine metabolic pathway inhibitors” (MIGAL—GALILEE RESEARCH INSTITUTE LTD., priority 2018, dated 2023).

Biological target: T1, CGS from Nicotiana tabacum (Nicotiana tabacum, UniProt Q9ZPL5)
T1 sequence (Q9ZPL5 96-540 limits assumed): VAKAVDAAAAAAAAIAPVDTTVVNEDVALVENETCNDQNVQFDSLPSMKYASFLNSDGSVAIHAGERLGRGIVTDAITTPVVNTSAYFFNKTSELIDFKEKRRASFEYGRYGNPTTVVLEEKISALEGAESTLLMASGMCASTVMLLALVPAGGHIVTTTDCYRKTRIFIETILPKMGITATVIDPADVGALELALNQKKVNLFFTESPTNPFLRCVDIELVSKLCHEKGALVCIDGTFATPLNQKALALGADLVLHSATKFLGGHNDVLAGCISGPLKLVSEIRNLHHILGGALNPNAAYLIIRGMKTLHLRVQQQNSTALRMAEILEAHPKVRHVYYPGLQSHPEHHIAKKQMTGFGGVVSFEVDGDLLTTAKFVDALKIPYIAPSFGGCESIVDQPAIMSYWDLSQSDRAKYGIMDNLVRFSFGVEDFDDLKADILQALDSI
Details: Steegborn et al. (2001); cited from earlier work

SMILES: O=C(O)CSc1nc(-c2cccc(Cl)c2)no1 [5-carboxymethylthio-3-(3′-chlorophenyl)-1,2,4-oxadiazol]
- affinity to the CGS: highest affinity to the CGS reported so far
